Assay results reported in publication PMC12281142, “A potent phenylalkylamine disrupts mycobacterial membrane bioenergetics and augments bactericidal activity of bedaquiline” (iScience, 2025).
Values after ≈ are worked out from the molar mass of the structure shown. Where two headings read alike, the source gives them in different places.

Tests used:
M. bovis BCG [1] = test: microbe, parasite or virus in culture; format: cell-based, Mycobacterium bovis BCG
[2] = system: Mab bolletii CCUG 50184-T; test: MIC against Mab bolletii CCUG 50184-T; format: cell-based, Mycobacterium abscessus subsp. bolletii; details: for MIC50 Mab bolletii CCUG 50184-T: 3 days
[3] = system: Mab massiliense CCUG 48898-T; test: MIC against Mab massiliense CCUG 48898-T; format: cell-based, Mycobacterium abscessus subsp. massiliense; details: for MIC50 Mab massiliense CCUG 48898-T: 3 days
Mab abscessus ATCC 19977 = test: MIC against Mab abscessus ATCC 19977; format: cell-based, Mycobacterium abscessus subsp. abscessus; details: for MIC90: read-out: MIC90 Mab abscessus ATCC 19977; for MIC50 Mab abscessus ATCC 19977: 3 days
Mtb H37Rv = test: MIC by broth microdilution against Mtb H37Rv; format: cell-based, Mycobacterium tuberculosis; details: incubation 5 days; for MIC50 Mtb H37Rv: first value of cell MIC50/MIC90
Vero E6 = test: Cytotoxicity in Vero E6 cells; format: cell-based, African green monkey; details: 48 h, growth suppressed by 50% vs untreated
Protocol: (§1) To each well in a 96-well plate, 50,000 cells in 100 μL media were seeded. Vero E6 and HepG2 cells were incubated overnight in DMEM for cell adherence at 37°C and 5% CO2. The media was removed from the wells and 100 μL solution made up of fresh DMEM media (99 μL) and the test compound (1 μL from a DMSO stock solution that was […] more concentrated than the final concentration in the well) was then added to each well. DMSO content of each well was consistently kept at 0.5 %v/v. Treated plates were incubated for 48 h (5% CO2, 37°C), after which 10 μL of Celltitre 96 Aqueous One Solution was added to each well, without removal of media, and incubated for a further 3 h. Subsequently, absorbance readings were taken at 490 nm on a Tecan GENios Microplate Reader.
(§2) Cell viability was determined from the expression: Cellviability(%)={[Absorbance(cells+cpd)−Absorbance(cpd)]/[Absorbance(cells+vc)−Absorbance(vc)]}×100% where Absorbance (cells + cpd) = absorbance of wells containing cells and test compound in vehicle (media +0.5% DMSO); Absorbance (cpd) = absorbance of wells containing test compound in vehicle without cells (compound control); Absorbance (cells + vc) = absorbance of wells containing cells in vehicle (vc) only (untreated cells); Absorbance (vc) = absorbance of wells containing vehicle without cells (vehicle control). The percentage viability readings were plotted against log(concentration) on GraphPad Prism (Version 7.0, San Diego, CA) to give a sigmoidal curve, from which IC50, defined as the concentration of the compound that reduced cell viability by 50%, was obtained. At least 3 separate determinations were carried out.

clinical isolates of Mab = test: MIC50 against Mab clinical isolates; format: cell-based, Mycobacterium abscessus; details: range over isolates
M. bovis BCG [4] = format: cell-based, Mycobacterium bovis BCG
HepG2 = test: Cytotoxicity in HepG2 cells; format: cell-based, human; details: 48 h, growth suppressed by 50% vs untreated
Protocol: as §1, §2

M. bovis BCG [5] = format: cell-based, Mycobacterium bovis BCG; remark: listed apart in the source
M. smegmatis mc2155 = test: MIC against M. smegmatis mc2155; format: cell-based, Mycobacterium smegmatis; details: Mycolicibacterium smegmatis
[6] = 7H9 medium (first value of cell)
[7] = CA-MHB medium (second value of cell)

## COc1cccc(CCN(C)CCCC(C#N)(c2ccc(OC)c(OC)c2)C(C)C)c1 (stereo not shown) [PhA57, devapamil, reference compound]
M. bovis BCG [1]; Mycobacterium tuberculosis variant bovis BCG, BCG, read-out: MIC90 (Table S1), M. bovis BCG, broth dilution
  MIC90: 180 µM (≈ 76.4 µg/mL)

## COc1ccc(CCN(C)CCCC(C#N)(C/C=C(\C)CCC=C(C)C)c2ccc(OC)c(OC)c2)cc1OC (racemic) [PhA3]
[2]; 7H9 broth (first value)
  MIC90: 98 µM (≈ 53.8 µg/mL)
[2]; [6]
  MIC50 Mab bolletii CCUG 50184-T: 47 µM (≈ 25.8 µg/mL)
[2]; [7]
  MIC50 Mab bolletii CCUG 50184-T: 13 µM (≈ 7.13 µg/mL)
[2]; camH broth (second value)
  MIC90: 26 µM (≈ 14.3 µg/mL)
M. bovis BCG [1]
  MIC50: 11 µM (≈ 6.04 µg/mL)
  MIC50 BCG With Glycerol: 11 µM (≈ 6.04 µg/mL)
  MIC50 BCG Without Glycerol: 18 µM (≈ 9.88 µg/mL)
  MIC90 (Table S1): 22 µM (≈ 12.1 µg/mL)
[3]; 7H9 broth (first value)
  MIC90: 96 µM (≈ 52.7 µg/mL)
[3]; [6]
  MIC50 Mab massiliense CCUG 48898-T: 42 µM (≈ 23 µg/mL)
[3]; [7]
  MIC50 Mab massiliense CCUG 48898-T: 10 µM (≈ 5.49 µg/mL)
[3]; camH broth (second value)
  MIC90: 56 µM (≈ 30.7 µg/mL)
Mab abscessus ATCC 19977; 7H9 broth (first value)
  MIC90: 104 µM (≈ 57.1 µg/mL)
Mab abscessus ATCC 19977; [6]
  MIC50 Mab abscessus ATCC 19977: 47 µM (≈ 25.8 µg/mL)
Mab abscessus ATCC 19977; [7]
  MIC50 Mab abscessus ATCC 19977: 17 µM (≈ 9.33 µg/mL)
Mab abscessus ATCC 19977; camH broth (second value)
  MIC90: 31 µM (≈ 17 µg/mL)
Mtb H37Rv
  MIC50 Mtb H37Rv: 19 µM (≈ 10.4 µg/mL)
Mtb H37Rv; second value of cell MIC50/MIC90, read-out: MIC90 Mtb H37Rv
  MIC90: 42 µM (≈ 23 µg/mL)
Vero E6
  IC50: 27 µM
Clinical isolates of Mab
  MIC50 seven Mab clinical isolates: 12 to 21 µg/mL
M. bovis BCG [4]
  CFUs above the detection limit: 10–100 times
HepG2
  IC50: 32 µM

## COc1ccc(C(C#N)(CCCn2c(N)nc3ccccc32)C(C)C)cc1OC (stereo not shown) [PhA18]
M. bovis BCG [1]
  MIC90 (Table S1): 155 µM (≈ 60.8 µg/mL)

## COc1ccc(C(C#N)(CCCN2CCN(c3ccccc3Cl)CC2)C(C)C)cc1OC (stereo not shown) [PhA19]
M. bovis BCG [1]
  MIC90 (Table S1): 73 µM (≈ 33.3 µg/mL)

## COc1ccc(CCN(C)CCCC(C#N)(CC2CCCCC2)c2ccc(Cl)cc2)cc1OC (stereo not shown) [PhA15]
M. bovis BCG [1]
  MIC50: 21 µM (≈ 10.1 µg/mL)
  MIC90: 37 µM (≈ 17.9 µg/mL)
  MIC90 (Table S1): 37 µM (≈ 17.9 µg/mL)

## COc1ccc(C(C#N)(CCCn2c(C)nc3ccccc32)C(C)C)cc1OC (stereo not shown) [PhA17]
M. bovis BCG [1]
  MIC90 (Table S1): > 250 µM

## COc1ccc(C(C#N)(CCCN2CCN(c3ccccc3OC)CC2)C(C)C)cc1OC (stereo not shown) [PhA20]
M. bovis BCG [1]
  MIC90 (Table S1): 163 µM (≈ 73.6 µg/mL)

## COc1ccc(CCN(C)CCCC(C#N)(Cc2ccc(Br)cc2)c2ccc(OC)c(OC)c2)cc1OC (stereo not shown) [PhA5]
M. bovis BCG [1]
  MIC50: 17 µM (≈ 9.89 µg/mL)
  MIC90: 43 µM (≈ 25 µg/mL)
  MIC90 (Table S1): 43 µM (≈ 25 µg/mL)

## CCCCCCCCC(C#N)(CCCN(C)CCc1ccc(OC)c(OC)c1)c1ccc(Cl)c(Cl)c1 (stereo not shown) [PhA12]
[2]; 7H9 broth (first value)
  MIC90: > 250 µM
[2]; [6]
  MIC50 Mab bolletii CCUG 50184-T: > 250 µM
[2]; [7]
  MIC50 Mab bolletii CCUG 50184-T: 72 µM (≈ 38.4 µg/mL)
[2]; camH broth (second value)
  MIC90: > 250 µM
M. bovis BCG [1]
  MIC50: 16 µM (≈ 8.54 µg/mL)
  MIC50 BCG Without Glycerol: 35 µM (≈ 18.7 µg/mL)
  MIC90: 29 µM (≈ 15.5 µg/mL)
  MIC90 (Table S1): 29 µM (≈ 15.5 µg/mL)
  MIC90 BCG: 16 µg/mL (≈ 30 µM)
[3]; 7H9 broth (first value)
  MIC90: > 250 µM
[3]; [6]
  MIC50 Mab massiliense CCUG 48898-T: > 250 µM
[3]; [7]
  MIC50 Mab massiliense CCUG 48898-T: 31 µM (≈ 16.5 µg/mL)
[3]; camH broth (second value)
  MIC90: > 250 µM
M. bovis BCG [5]
  MBC99.9 (10^3-fold kill): 4 x MIC90
Mab abscessus ATCC 19977; 7H9 broth (first value)
  MIC90: > 250 µM
Mab abscessus ATCC 19977; [6]
  MIC50 Mab abscessus ATCC 19977: > 250 µM
Mab abscessus ATCC 19977; [7]
  MIC50 Mab abscessus ATCC 19977: 194 µM (≈ 104 µg/mL)
Mab abscessus ATCC 19977; camH broth (second value)
  MIC90: > 250 µM
Mtb H37Rv
  MIC50 Mtb H37Rv: 23/46 μM
  MIC90 Mtb H37Rv: 23/46 μM
Vero E6
  IC50: 69 µM
HepG2
  IC50: 51 µM

## COc1ccc(C(C#N)(CC=C(C)CCC=C(C)C)CCCN2CCN(C(c3ccccc3)c3ccccc3)CC2)cc1OC (stereo not shown) [PhA16]
M. bovis BCG [1]
  MIC50: 29 µM (≈ 17.6 µg/mL)
  MIC90: 46 µM (≈ 27.9 µg/mL)
  MIC90 (Table S1): 46 µM (≈ 27.9 µg/mL)

## COc1ccc(CCN(C)CCCC(C#N)(CCCCCCCN=[N+]=[N-])c2ccc(OC)c(OC)c2)cc1OC (stereo not shown) [AZ-2]
M. bovis BCG [1]; Mycobacterium tuberculosis variant bovis BCG, BCG, M. bovis BCG, broth dilution, growth reduced by 90% vs untreated
  MIC90: 27 µM (≈ 14.9 µg/mL)
M. bovis BCG [1]; Mycobacterium tuberculosis variant bovis BCG, BCG, read-out: M. bovis BCG MIC50 (Table S4)
  MIC50: 12 µM (≈ 6.62 µg/mL)
M. bovis BCG [1]; Mycobacterium tuberculosis variant bovis BCG, BCG, read-out: M. bovis BCG MIC90 (Table S4)
  MIC90: 27 µM (≈ 14.9 µg/mL)
M. smegmatis mc2155; MC2155, 24 h, incubation 1 day, read-out: M. smegmatis mc2155 MIC50 (Table S4)
  MIC50: 38 µM (≈ 21 µg/mL)
M. smegmatis mc2155; MC2155, 24 h, incubation 1 day, read-out: M. smegmatis mc2155 MIC90 (Table S4)
  MIC90: 58 µM (≈ 32 µg/mL)
M. smegmatis mc2155; MC2155, read-out: MIC90 M. smegmatis
  MIC90: 58 µM (≈ 32 µg/mL)

## COc1ccc(CCN(C)CCCC(C#N)(c2ccc(Cl)cc2)C2CCCCC2)cc1OC (stereo not shown) [PhA14]
M. bovis BCG [1]
  MIC50: 19 µM (≈ 8.91 µg/mL)
  MIC90: 35 µM (≈ 16.4 µg/mL)
  MIC90 (Table S1): 35 µM (≈ 16.4 µg/mL)
